# Test results reported in US6897209B2, “Labelled factor XIIIa substrates” (GE Healthcare Limited, priority 1997, dated 2005).
# Experiments:
# [1] = Normal rat biodistribution; format: in vivo; settings: i.v., male Wistar rats, Mean±SD n=3
# Description: The resolution of a clot image is dependant on the combination of rate of incorporation of the radiopharmaceutical and its blood/tissues clearance rate. For this reason the biodistribution of several compounds has been determined in rats. Male Wistar (100-150 g) rats were injected i.v. with 0.1-0.2 ml of radiolabelled tracer solution (8 MBq/ml) and dissected at different times post-injection. The % ID in each of the selected tissues was measured. Some animals were kept in metabolism cages to be able to determine the % ID excreted in urine and faeces. The dissection times used for the majority of the agents was 2, 15, 30, 60, 240 min. Data are shown as % ID, Mean±SD, (n=3).
# Factor XIIIa = molecular target: T1, Factor XIIIa (Homo sapiens, UniProt P00488); test: Factor XIIIa dependency of incorporation (dimethylcasein uptake, normal vs Factor XIII deficient plasma); format: biochemical; settings: 1 KBq/ml, 60 minutes; uptake in normal plasma minus Factor XIII deficient plasma
# T1 construct: Factor XIII is transformed into its active form Factor XIIIa by thrombin in the presence of calcium ions; from tissue; host or cells: human plasma
# T1 sequence (P00488 39-732 limits assumed): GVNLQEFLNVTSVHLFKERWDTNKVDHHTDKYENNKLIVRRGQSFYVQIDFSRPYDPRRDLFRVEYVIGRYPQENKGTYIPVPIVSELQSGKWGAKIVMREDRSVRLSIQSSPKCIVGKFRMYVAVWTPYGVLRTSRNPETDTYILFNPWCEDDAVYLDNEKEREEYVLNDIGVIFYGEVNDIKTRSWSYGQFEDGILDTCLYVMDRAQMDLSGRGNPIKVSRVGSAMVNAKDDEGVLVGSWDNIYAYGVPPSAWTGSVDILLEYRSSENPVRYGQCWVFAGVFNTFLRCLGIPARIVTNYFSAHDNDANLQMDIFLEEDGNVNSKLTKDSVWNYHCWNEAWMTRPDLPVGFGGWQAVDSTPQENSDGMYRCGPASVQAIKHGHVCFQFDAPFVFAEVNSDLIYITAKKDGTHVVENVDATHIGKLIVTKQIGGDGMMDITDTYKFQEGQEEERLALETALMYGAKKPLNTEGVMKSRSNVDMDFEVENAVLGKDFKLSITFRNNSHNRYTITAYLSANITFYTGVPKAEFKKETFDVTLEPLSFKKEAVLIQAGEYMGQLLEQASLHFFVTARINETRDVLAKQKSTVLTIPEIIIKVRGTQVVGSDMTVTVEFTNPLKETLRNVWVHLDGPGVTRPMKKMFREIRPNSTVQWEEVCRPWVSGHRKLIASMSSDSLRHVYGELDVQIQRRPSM
# Description: The assay was changed by replacing the mercaptoethanol with aprotinin at a final concentration of 2 μg/ml, and dimethylcasein (DMC) was used instead of casein.
# [2] = tested on: clots induced in rat inferior vena cava; test: Incorporation into clots induced in a rat model (rat inferior vena cava model); format: in vivo; settings: rat IVC model
# Description: The rats (Male Wistar, 250-350 g) were anaesthetised with 15% urethane. After laparotomy, the vena cava was isolated and freed of surrounding fat tissue. […] The average weight of the clots formed in this model was around 27 mg, n=32, (5-50 mg range). The so compounds were injected 5 min post-induction. After 60 min the animals were sacrificed and the clot removed, weighed and counted. Other tissues e.g. blood, lung, heart, were also dissected and counted. The uptake of tracer into the clot was determined as the relative concentration (cpm/g of clot by dose/g animal ) and clot to background tissue.
# human plasma clots [3] = test: Incorporation into human plasma clots (in vitro plasma clot assay); format: biochemical; settings: control vials without thrombin and calcium chloride, 60 minutes
# Description: (§1) Incorporation of radiolabelled substrates into fibrin was investigated by induction of an in vitro human plasma clot in the following manner. To a siliconised 5 ml glass vial was added, (a) 800 μl of Tris(hydroxymethyl)aminomethane buffered saline pH 7.5 containing calcium chloride (50 mM Tris, 150 mM sodium chloride, 4 mM calcium chloride.), (b) 40 μl of physiological salt solution containing 100 units of thrombin per ml, (c) 400 μl of human plasma containing the radiolabelled substrate at a concentration of typically 10 kBq/ml. To aid induction of clot a roughened glass rod was added to the reaction vial. Control vials were prepared similarly but with the omission of thrombin and calcium chloride.
# (§2) The proportion of total radioactivity was calculated by counting in suitable detection apparatus.
# (§3) The fraction of radioactivity retained on the filter, after subtraction of the non-specific binding determined from the control, is a measure of incorporation into the filtered clots.
# human plasma clots [4] = molecular target: T2, human plasma clots (Homo sapiens, UniProt P00488); test: as above; format: biochemical
# T2 construct: Factor XIII is transformed into its active form Factor XIIIa by thrombin in the presence of calcium ions; from tissue; host or cells: human plasma, clotted in vitro with thrombin and calcium chloride
# T2 sequence (P00488 39-732): T1 sequence (P00488 39-732 limits assumed)
# Description: as §1, §2, §3
# [5] = compound injected 5 min post-induction, clot removed after 60 min
smiles,measurement,setting,value
"NCCCCCNS(=O)(=O)c1ccc(C(=O)NCCCNC(=O)c2ccc(NN)nc2)cc1 [Compound 24, N-[6-hydrazinopyridine-3-carbonyl]-N′-(4-N-(5-aminopentyl)amidosulphonyl)benzoyl propane-1,3-diamine]",% ID Blood,[1]; 2 min post-injection,18.2 ± 1.39 % ID
same,% ID GI Tract,[1]; 2 min post-injection,7.48 ± 0.45 % ID
same,% ID Heart,[1]; 2 min post-injection,0.73 + 0.1 % ID
same,% ID Kidney,[1]; 2 min post-injection,10.2 ± 3.07 % ID
same,% ID Liver,[1]; 2 min post-injection,5.38 ± 0.75 % ID
same,% ID Lung,[1]; 2 min post-injection,1.99 ± 0.12 % ID
same,% ID Muscle,[1]; 2 min post-injection,28.5 ± 0.25 % ID
same,% ID Urine,[1]; 2 min post-injection,0.11 ± 0.1 % ID
same,% ID Blood,[1]; 15 min post-injection,7.11 ± 1.29 % ID
same,% ID GI Tract,[1]; 15 min post-injection,23.3 ± 6.5 % ID
same,% ID Heart,[1]; 15 min post-injection,0.3 + 0.08 % ID
same,% ID Kidney,[1]; 15 min post-injection,4.11 ± 1.31 % ID
same,% ID Liver,[1]; 15 min post-injection,6.7 ± 1.21 % ID
same,% ID Lung,[1]; 15 min post-injection,0.78 ± 0.16 % ID
same,% ID Muscle,[1]; 15 min post-injection,17.9 ± 4.38 % ID
same,% ID Urine,[1]; 15 min post-injection,8.64 ± 5.6 % ID
same,% ID Blood,[1]; 30 min post-injection,3.86 ± 0.62 % ID
same,% ID GI Tract,[1]; 30 min post-injection,31.5 ± 11.9 % ID
same,% ID Heart,[1]; 30 min post-injection,0.13 + 0.03 % ID
same,% ID Kidney,[1]; 30 min post-injection,2.52 ± 1.1 % ID
same,% ID Liver,[1]; 30 min post-injection,3.67 ± 0.62 % ID
same,% ID Lung,[1]; 30 min post-injection,0.39 ± 0.06 % ID
same,% ID Muscle,[1]; 30 min post-injection,10.2 ± 1.09 % ID
same,% ID Urine,[1]; 30 min post-injection,31.0 ± 9.41 % ID
same,% ID Blood,[1]; 60 min post-injection,1.6 ± 0.57 % ID
same,% ID GI Tract,[1]; 60 min post-injection,38.8 ± 9.6 % ID
same,% ID Heart,[1]; 60 min post-injection,0.06 + 0.03 % ID
same,% ID Kidney,[1]; 60 min post-injection,1.4 ± 0.38 % ID
same,% ID Liver,[1]; 60 min post-injection,1.6 ± 0.29 % ID
same,% ID Lung,[1]; 60 min post-injection,0.18 ± 0.06 % ID
same,% ID Muscle,[1]; 60 min post-injection,3.62 ± 0.9 % ID
same,% ID Urine,[1]; 60 min post-injection,44.9 ± 7.32 % ID
same,% ID Blood,[1]; 240 min post-injection,0.29 ± 0.06 % ID
same,% ID GI Tract,[1]; 240 min post-injection,46.3 ± 4.4 % ID
same,% ID Heart,[1]; 240 min post-injection,0.02 + 0.01 % ID
same,% ID Kidney,[1]; 240 min post-injection,0.92 ± 0.37 % ID
same,% ID Liver,[1]; 240 min post-injection,0.3 ± 0.03 % ID
same,% ID Lung,[1]; 240 min post-injection,0.05 ± 0.02 % ID
same,% ID Muscle,[1]; 240 min post-injection,1.1 ± 0.32 % ID
same,% ID Urine,[1]; 240 min post-injection,49.51 ± 4.62 % ID
same,% specific DMC casein uptake,Factor XIIIa,22.5%
same,Clot/Blood,[2]; 60 min,1.8
same,Clot/Heart,[2]; 60 min,3.9
same,Clot/Liver,[2]; 60 min,0.93
same,Clot/Lung,[2]; 60 min,2.5
same,% ID/g (clot uptake),[2]; [5],0.21 ± 0.02 % ID/g
same,Relative conc (cpm/g of clot by dose/g animal),[2]; [5],0.62 ± 0.1
same,% retained in plasma clot assay (no thrombin),human plasma clots [3],0.2%
same,% specific uptake*,human plasma clots [4]; % retained with thrombin − % retained no thrombin,13.8%
same,% retained in plasma clot assay (with thrombin),"human plasma clots [4]; human plasma with thrombin and calcium chloride, 60 minutes, ca. 20° C.",14%
